Reference: patent publication US20080280814A1, “Pharmaceutical Compositions Containing Insulin and Insulinotropic Peptide” (Novo Nordisk A/S, priority 2004, published 2008)

Target: T1, His^B10 anion site of the R6 hexameric aspart (Homo sapiens, UniProt P01308, P52D)
T1 construct: The A-chain is a 21 amino acid peptide and the B-chain is a 30 amino acid peptide
Assay: 600 MHz proton NMR of aspart/liraglutide mixtures (R6 hexamer signal of Cys A6 alpha proton at 5.6 ppm)
Type: binding
Details: for stabilization of the aspart R6 conformation (NMR resonances between 5 and 6 ppm): ligand at 3 mM added to the aspart/liraglutide mixtures of FIG. 13, FIG. 14, 15
Protocol: Insulin Aspart (B28 Asp human insulin) and liraglutide mixtures were prepared with constant aspart concentration (0.6 mM) and increasing concentration of liraglutide (going from 0 to 2.4 mM). Mixtures are formulated at pH 7.5, 1.6% w/v d-glycerol, 0.3 mM Zn(Ac)2, 30 mM d-phenol (deuterated phenol in order to avoid any proton NMR signal). […] This region of the proton NMR signal only included signals from aspart, no signals from liraglutide were present.
Ligands for the His^B10 anion site of the R6 hexameric aspart entity will stabilize this R6 conformation. Two such ligands were tested under the same conditions as was used in the experiment depicted in FIG. 13 with the addition of ligands at 3 mM concentration.

T1 sequence (P01308 25-54 P52D): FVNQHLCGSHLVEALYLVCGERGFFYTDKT
T1 sequence (P01308 90-110): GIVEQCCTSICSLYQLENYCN

| SMILES | stabilization of the aspart R6 conformation (NMR resonances between 5 and 6 ppm) | tightness of binding to the Zn-binding pocket of aspart, compared (ligand at 3 mM, FIG. 15 against FIG. 14) |
| --- | --- | --- |
| O=C1NC(=O)/C(=C/c2cccc3ccccc23)S1 [5-Naphthalen-1-ylmethylenethiazolidine-2,4-dione] | invariant aspart resonances under increasing liraglutide concentration | binds even tighter than the 5-Benzyl-2H-tetrazole |
| c1ccc(Cc2nn[nH]n2)cc1 [5-Benzyl-2H-tetrazole] | stabilized the R6 conformation | – |
